Experimental data: publication PMC10518257 (Nature Cancer, 2023)
pIC50: −log10 of the molar value. Where “and” joins values, the source holds several entries; their conditions need not be identical. Identical values can stand only once.

Experiments:
[1] = system: Ba/F3 cells expressing KIF5B–RET^V804L; assay: Growth inhibition assay in Ba/F3 cells (CellTiter-Glo, 72 h); assay type: cell-based; conditions: Ba/3-KIF5B-RET-V804L; replicate sets
[2] = system: LUAD-0077AS1 PDX; assay: PDX efficacy study; assay type: in vivo, NSG mice; set-up: Tumor volume: unit not given here; conditions: for Area Under Curve Mean: Fig. 6b LUAD-0077AS1 tumor growth; for Change in tumor volume (block without heading, Fig. 6b) / Tumor volume: LUAD-0077AS1, individual animals
[3] = system: Ba/F3 KIF5B–RET^G810R allograft tumors; assay: Subcutaneous allograft efficacy study; assay type: in vivo, BALB/c nude mice; conditions: in mm³ (unit assumed);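 note: mean tumor volume per dosing group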
[4] = system: LUAD-0087AS2 cells; assay: Growth inhibition (alamarBlue, 96 h); assay type: cell-based, human; conditions: for raw viability signal (Source Data Fig. 3b-c): LUAD-0087AS2, replicate sets
[5] = system: LUAD-0057BS1 cells; assay: Growth inhibition (alamarBlue, 96 h); assay type: cell-based, human; conditions: for raw viability signal (Source Data Fig. 3b-c): LUAD-0057BS1, replicate sets
[6] = Homo sapiens, 96 h, read-out: IC50 for Inhibition of Growth (95% CI)

Compound: CO[C@]1(C(=O)N[C@@H](C)c2ccc(-n3cc(F)cn3)nc2)CC[C@H](c2nc(C)cc(Nc3cc(C)[nH]n3)n2)CC1 [Pralsetinib]
- GI50 [1]: 10.6 nM and 6.67 nM and 4.32 nM
- Area Under Curve Mean ([2]; 15 mg/kg BID): 189.7
- Area Under Curve Mean ([2]; 30 mg/kg BID): -512.3
- Change in tumor volume (block without heading, Fig. 6b) ([2]; 15 mg/kg BID): 31.8218 and 17.159 and 11.071 and 13.2706 and -8.805
- Tumor volume ([2]; 15 mg/kg BID, treatment day 0): 88.7 (3×) and 87.11 (2×)
- Tumor volume ([2]; 15 mg/kg BID, treatment day 4): 88.7 (4×) and 87.11
- Tumor volume ([2]; 15 mg/kg BID, treatment day 7): 88.7 (2×) and 80.89 and 77.87 and 90.28
- Tumor volume ([2]; 15 mg/kg BID, treatment day 11): 66.76 and 80.89 (2×) and 42.6 and 72.18
- Tumor volume ([2]; 15 mg/kg BID, treatment day 14): 70.82 and 80.89 and 64.12 and 83.97 and 73.54
- Tumor volume ([2]; 15 mg/kg BID, treatment day 19): 80.89 and 98.67 and 103.92 and 114.83 and 98.52
- Tumor volume ([2]; 15 mg/kg BID, treatment day 22): 150.13 and 109.36 and 130.83 and 152.27 and 164.53
- Tumor volume ([2]; 15 mg/kg BID, treatment day 25): 166.88 and 122.74 and 141.32 and 205.88 and 187.29
- Change in tumor volume (block without heading, Fig. 6b) ([2]; 30 mg/kg BID): -26.3021 and -30.7542 and -32.7343 and -33.6127 and -36.9233
- Tumor volume ([2]; 30 mg/kg BID, treatment day 0): 88.7 and 87.11 (2×) and 82.36 (2×)
- Tumor volume ([2]; 30 mg/kg BID, treatment day 4): 88.7 (2×) and 87.11 and 82.36 and 83.97
- Tumor volume ([2]; 30 mg/kg BID, treatment day 7): 72.18 and 70.82 and 68.07 and 66.76 and 74.9
- Tumor volume ([2]; 30 mg/kg BID, treatment day 11): 57.83 (2×) and 60.32 (2×) and 64.12
- Tumor volume ([2]; 30 mg/kg BID, treatment day 14): 52.07 and 53.01 (2×) and 50.68 and 49.83
- Tumor volume ([2]; 30 mg/kg BID, treatment day 19): 65.37 and 57.83 and 55.4 and 60.32 and 51.95
- Tumor volume ([2]; 30 mg/kg BID, treatment day 22): 65.37 and 48.41 and 53.01 and 51.95 (2×)
- Tumor volume ([2]; 30 mg/kg BID, treatment day 25): 65.37 and 83.97 and 60.32 and 53.01 and 55.4
- Tumor Volume Mean ([3]; Fig. 7c Ba/F3-KIF5B::RET G810R, pralsetinib 10 mg/kg BID, day 1): 154.09
- Tumor Volume Mean ([3]; Fig. 7c Ba/F3-KIF5B::RET G810R, pralsetinib 10 mg/kg BID, day 4): 213.90
- Tumor Volume Mean ([3]; Fig. 7c Ba/F3-KIF5B::RET G810R, pralsetinib 10 mg/kg BID, day 8): 315.85
- Tumor Volume Mean ([3]; Fig. 7c Ba/F3-KIF5B::RET G810R, pralsetinib 10 mg/kg BID, day 11): 472.80
- Tumor Volume Mean ([3]; Fig. 7c Ba/F3-KIF5B::RET G810R, pralsetinib 10 mg/kg BID, day 15): 1059.21
- Tumor Volume Mean ([3]; Fig. 7d Ba/F3-KIF5B::RET G810R, pralsetinib 30 mg/kg BID, day 1): 163.0
- Tumor Volume Mean ([3]; Fig. 7d Ba/F3-KIF5B::RET G810R, pralsetinib 30 mg/kg BID, day 4): 312.7
- Tumor Volume Mean ([3]; Fig. 7d Ba/F3-KIF5B::RET G810R, pralsetinib 30 mg/kg BID, day 8): 411.9
- Tumor Volume Mean ([3]; Fig. 7d Ba/F3-KIF5B::RET G810R, pralsetinib 30 mg/kg BID, day 11): 562.8
- Tumor Volume Mean ([3]; Fig. 7d Ba/F3-KIF5B::RET G810R, pralsetinib 30 mg/kg BID, day 15): 747.9
- pIC50 [4, 6]: 7.62
- raw viability signal (Source Data Fig. 3b-c) ([4]; 0.01 nM): 10767.7 and 15151.6 and 17255.6 and 15692.7
- raw viability signal (Source Data Fig. 3b-c) ([4]; 0.1 nM): 11083.5 and 15670.9 and 15636 and 16225.5
- raw viability signal (Source Data Fig. 3b-c) ([4]; 1 nM): 10977.2 and 15832.3 and 16084.8 and 16863
- raw viability signal (Source Data Fig. 3b-c) ([4]; 10 nM): 7788.62 and 8365.43 and 13487.5 and 12530.5
- raw viability signal (Source Data Fig. 3b-c) ([4]; 100 nM): 2806.08 and 5716.79 and 2099.37 and 2602.78
- raw viability signal (Source Data Fig. 3b-c) ([4]; 1000 nM): 2132.43 and 5081.65 and 1620.29 and 1608.1
- raw viability signal (Source Data Fig. 3b-c) ([4]; 10000 nM): 2211.28 and 4121.33 and 1386.59 and 1376.18
- pIC50 [5, 6]: 7.44
- raw viability signal (Source Data Fig. 3b-c) ([5]; 0.01 nM): 16595.3 and 17181.3 and 21729.4
- raw viability signal (Source Data Fig. 3b-c) ([5]; 0.1 nM): 16479.6 and 19958 and 20455.1
- raw viability signal (Source Data Fig. 3b-c) ([5]; 1 nM): 16334.3 and 18804.2 and 20595.3
- raw viability signal (Source Data Fig. 3b-c) ([5]; 10 nM): 13376 and 14580.9 and 14292.2
- raw viability signal (Source Data Fig. 3b-c) ([5]; 100 nM): 5525.42 and 5782.49 and 4569.11
- raw viability signal (Source Data Fig. 3b-c) ([5]; 1000 nM): 1800.25 and 2058.52 and 1619.82
